Measurements: patent US10654834B2 (Venenum Biodesign, LLC, priority 2016, dated 2020)

Legend:
mouse TGR5 receptor = target: T1, mouse TGR5 receptor (Mus musculus, UniProt Q80SS6); assay: Mouse TGR5 HTRF cAMP production assay (HEK293-EBNA cells, Cisbio cAMP HiRange kit); format: cell-based; conditions: HEK293-EBNA cells overexpressing mouse TGR5, HTRF cAMP assay
T1 construct: host or cells: HEK293-EBNA (293 c18, ATCC CRL10852)
T1 sequence (Q80SS6 1-329): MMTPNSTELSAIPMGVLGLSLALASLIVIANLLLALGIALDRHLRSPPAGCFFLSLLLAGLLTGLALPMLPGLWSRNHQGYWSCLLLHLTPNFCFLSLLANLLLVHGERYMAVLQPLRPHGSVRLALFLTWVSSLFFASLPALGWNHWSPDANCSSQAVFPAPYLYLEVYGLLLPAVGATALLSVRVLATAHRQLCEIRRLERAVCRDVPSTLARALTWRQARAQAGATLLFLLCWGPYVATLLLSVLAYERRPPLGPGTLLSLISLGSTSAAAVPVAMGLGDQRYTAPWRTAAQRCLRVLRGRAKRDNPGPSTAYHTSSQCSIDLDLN
In short: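 HEK293-EBNA cells stably expressing mouse TGR5 (episomal vector) were suspended in serum-free DMEM with 500 μM IBMX and exposed to 12-point half-log compound dilutions for 1 h at room temperature. cAMP was detected by HTRF (d2-cAMP/anti-cAMP cryptate, 1 h, room temperature), giving EC50 from duplicates.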

human TGR5 receptor = target: T2, human TGR5 receptor (Homo sapiens, UniProt Q8TDU6); assay: Human TGR5 cAMP production assay (hTGR5-CHO cells, DiscoveRx cAMP XS+ kit); format: cell-based; conditions: luminescent cAMP assay, read-out: Human TGR5 Lum. cAMP Activity (EC50)
T2 construct: host or cells: CHO-K1 (hTGR5-CHO)
T2 sequence (Q8TDU6 1-330): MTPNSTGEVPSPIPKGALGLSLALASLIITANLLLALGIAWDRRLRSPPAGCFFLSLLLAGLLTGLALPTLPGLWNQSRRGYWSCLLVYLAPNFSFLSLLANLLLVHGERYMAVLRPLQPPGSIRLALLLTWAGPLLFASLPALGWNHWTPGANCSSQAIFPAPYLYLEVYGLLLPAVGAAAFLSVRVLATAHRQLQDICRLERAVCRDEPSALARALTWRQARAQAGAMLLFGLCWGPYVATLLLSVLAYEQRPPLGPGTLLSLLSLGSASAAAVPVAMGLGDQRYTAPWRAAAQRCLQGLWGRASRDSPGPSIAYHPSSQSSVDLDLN
In short: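 CHO-K1 cells stably expressing hTGR5, in PBS with IBMX and cAMP antibody, treated with half-log compound dilutions for 1 h at room temperature. cAMP measured by enzyme-fragment complementation luminescence after overnight detection; EC50 values reported.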

Row | EC50 (mouse TGR5 receptor) [nM] | EC50 (human TGR5 receptor) [nM] | SMILES
1 | 100 to 999 | 100 to 999 | O=C(O)CCNC(=O)NCCC1CCN(c2cc(N3CCC[C@H]3C(=O)NCCc3ccc(-c4cccnc4)cc3)nc(C(F)(F)F)n2)CC1 [Compound 377, (S)-3-(3-(2-(1-(6-(2-((4-(pyridin-3-yl)phenethyl)carbamoyl)pyrrolidin-1-yl)-2-(trifluoromethyl)pyrimidin-4-yl)piperidin-4-yl)ethyl)ureido)propanoic acid]
2 | < 100 | 100 to 999 | N#Cc1ccc(CCNC(=O)[C@@H]2CCCN2c2cc(-c3ccc(CCNC(=O)NCCCS(=O)(=O)O)cc3)nc(C(F)(F)F)n2)cc1 [Compound 195, (S)-3-(3-(4-(6-(2-((4-cyanophenethyl)carbamoyl)pyrrolidin-1-yl)-2-(trifluoromethyl)pyrimidin-4-yl)phenethyl)ureido)propane-1-sulfonic acid]
3 | < 100 | 100 to 999 | N#Cc1ccc(CCNC(=O)[C@@H]2CCCN2c2cc(N3CCC(CCCNC(=O)NCS(=O)(=O)O)CC3)cc(C(F)(F)F)n2)cc1 [Compound 201, (S)-(3-(3-(1-(2-(2-((4-cyanophenethyl)carbamoyl)pyrrolidin-1-yl)-6-(trifluoromethyl)pyridin-4-yl)piperidin-4-yl)propyl)ureido)methanesulfonic acid]
4 | < 100 | < 100 | N#Cc1ccccc1CCNC(=O)[C@@H]1CCCN1c1cc(N2CCC(CCCC(=O)NCS(=O)(=O)O)CC2)nc(C(F)(F)F)n1 [Compound 366, (S)-(4-(1-(6-(2-((2-cyanophenethyl)carbamoyl)pyrrolidin-1-yl)-2-(trifluoromethyl)pyrimidin-4-yl)piperidin-4-yl)butanamido)methanesulfonic acid]
5 | < 100 | 100 to 999 | N#Cc1ccc(CCNC(=O)[C@@H]2CCCN2c2cc(-c3ccc(CO)s3)nc(C(F)(F)F)n2)cc1 [Compound 183, (S)-N-(4-cyanophenethyl)-1-(6-(5-(hydroxymethyl)thiophen-2-yl)-2-(trifluoromethyl)pyrimidin-4-yl)pyrrolidine-2-carboxamide]
6 | < 100 | < 100 | O=C(O)CCCC1CCN(c2cc(N3CC[C@H]3C(=O)NCCc3ccc(C(F)(F)F)cc3)nc(C(F)(F)F)n2)CC1 [Compound 233, (S)-4-(1-(2-(trifluoromethyl)-6-(2-((4-(trifluoromethyl)phenethyl)carbamoyl)azetidin-1-yl)pyrimidin-4-yl)piperidin-4-yl)butanoic acid]
7 | < 100 | 100 to 999 | COC(=O)c1ccc(S(=O)(=O)NCCOCCNC(=O)CCCC2CCN(c3cc(N4CC[C@H]4C(=O)NCCc4ccc(C#N)cc4)nc(C(F)(F)F)n3)CC2)cc1 [Compound 290, (S)-methyl 4-(N-(2-(2-(4-(1-(6-(2-((4-cyanophenethyl)carbamoyl)azetidin-1-yl)-2-(trifluoromethyl)pyrimidin-4-yl)piperidin-4-yl)butanamido)ethoxy)ethyl)-sulfamoyl)benzoate]
8 | < 100 | < 100 | N#CCCC1CCN(c2cc(N3CCC[C@@H](C(=O)NCCc4ccc(C#N)cc4)C3)nc(C(F)(F)F)n2)CC1 [Compound 311, (R)-1-(6-(4-(2-cyanoethyl)piperidin-1-yl)-2-(trifluoromethyl)pyrimidin-4-yl)-N-(4-cyanophenethyl)piperidine-3-carboxamide]
9 | < 100 | < 100 | N#Cc1ccc(CCNC(=O)[C@@H]2CCCN2c2cc(N3CCC(CCCO)CC3)nc(C(F)(F)F)n2)cc1 [Compound 23]
10 | < 100 | < 100 | N#Cc1ccc(CCNC(=O)[C@@H]2CCCN2c2cc(N3CCC(CCNC(=O)N[C@H](CC(=O)O)C(=O)O)CC3)nc(C(F)(F)F)n2)cc1 [Compound 82, (R)-2-(3-(2-(1-(6-((S)-2-((4-cyanophenethyl)carbamoyl)pyrrolidin-1-yl)-2-(trifluoromethyl)pyrimidin-4-yl)piperidin-4-yl)ethyl)ureido)succinic acid]
11 | < 100 | 100 to 999 | N#Cc1ccc(CCNC(=O)[C@@H]2CCCN(c3cc(N4CCN(CCOCCO)CC4)nc(C(F)(F)F)n3)C2)cc1 [Compound 314, (R)-N-(4-cyanophenethyl)-1-(6-(4-(2-(2-hydroxyethoxy)ethyl)piperazin-1-yl)-2-(trifluoromethyl)pyrimidin-4-yl)piperidine-3-carboxamide]
12 | 100 to 999 | 100 to 999 | CN(C)CCN1CCN(c2cc(N3CCC[C@H]3C(=O)NCCc3ccc(C#N)cc3)nc(C(F)(F)F)n2)CC1 [Compound 30]
13 | < 100 | 100 to 999 | N#Cc1ccc(CCNC(=O)[C@@H]2CCCN2c2cc(-c3ccc(CCC(=O)N[C@@H](CCCNC(=N)N)C(=O)O)cc3)cc(C(F)(F)F)n2)cc1 [Compound 207, (S)-2-(3-(4-(2-((S)-2-((4-cyanophenethyl)carbamoyl)pyrrolidin-1-yl)-6-(trifluoromethyl)pyridin-4-yl)phenyl)propanamido)-5-guanidino-pentanoic acid]
14 | 100 to 999 | 100 to 999 | O=C(CCCC1CCN(c2cc(N3CCC[C@H]3C(=O)NCCc3ccccc3)nc(C(F)(F)F)n2)CC1)NCS(=O)(=O)O [Compound 365, (S)-(4-(1-(6-(2-(phenethylcarbamoyl)pyrrolidin-1-yl)-2-(trifluoromethyl)pyrimidin-4-yl)piperidin-4-yl)butanamido)methanesulfonic acid]
15 | 100 to 999 | < 100 | O=C(NCCc1ccc(C(F)(F)F)cc1)[C@@H]1CCN1c1cc(N2CCC(CCCC3CCNCC3)CC2)nc(C(F)(F)F)n1 [Compound 275, (S)-1-(6-(4-(3-(piperidin-4-yl)propyl)piperidin-1-yl)-2-(trifluoromethyl)pyrimidin-4-yl)-N-(4-(trifluoromethyl)phenethyl)azetidine-2-carboxamide]
16 | < 100 | < 100 | N#Cc1ccc(CCNC(=O)[C@@H]2CCCN2c2cc(N3CCC(CCCC(=O)NCCN)CC3)nc(C(F)(F)F)n2)cc1 [Compound 92, (S)-1-(6-(4-(4-((2-aminoethyl)amino)-4-oxobutyl)piperidin-1-yl)-2-(trifluoromethyl)pyrimidin-4-yl)-N-(4-cyanophenethyl)pyrrolidine-2-carboxamide]
17 | < 100 | < 100 | COCCC1CCN(c2cc(N3CCC[C@H]3C(=O)NCCc3ccc(C#N)cc3)nc(C(F)(F)F)n2)CC1 [Compound 25]
18 | < 100 | < 100 | N#Cc1ccc(CCNC(=O)[C@@H]2CCN2c2cc(N3CCC(CCN)CC3)nc(C(F)(F)F)n2)cc1 [Compound 246, (S)-1-(6-(4-(2-aminoethyl)piperidin-1-yl)-2-(trifluoromethyl)pyrimidin-4-yl)-N-(4-cyanophenethyl)azetidine-2-carboxamide]
19 | < 100 | < 100 | O=C(O)CCNC(=O)NCCC1CCN(c2cc(N3C[C@@H](O)C[C@H]3C(=O)NCCc3ccc(C(F)(F)F)cc3)nc(C(F)(F)F)n2)CC1 [Compound 374, 3-(3-(2-(1-(6-((2S,4S)-4-hydroxy-2-((4-(trifluoromethyl)phenethyl)carbamoyl)pyrrolidin-1-yl)-2-(trifluoromethyl)pyrimidin-4-yl)piperidin-4-yl)ethyl)ureido)propanoic acid]
20 | 100 to 999 | 100 to 999 | CC(C)(C)OC(=O)NCCC1CCN(c2cc(N3CCC[C@@H](C(=O)NCCc4ccc(C#N)cc4)C3)nc(C(F)(F)F)n2)CC1 [Compound 312, (R)-tert-butyl (2-(1-(6-(3-((4-cyanophenethyl)carbamoyl)piperidin-1-yl)-2-(trifluoromethyl)pyrimidin-4-yl)piperidin-4-yl)ethyl)carbamate]
21 | < 100 | < 100 | COCCC1CCN(c2cc(N3CC[C@H]3C(=O)NCCc3ccc(C#N)cc3)nc(C(F)(F)F)n2)CC1 [Compound 225, (S)-N-(4-cyanophenethyl)-1-(6-(4-(2-methoxyethyl)piperidin-1-yl)-2-(trifluoromethyl)pyrimidin-4-yl)azetidine-2-carboxamide]
22 | < 100 | < 100 | CCOC(=O)CCNC(=O)NCCC1CCN(c2cc(N3CC[C@H]3C(=O)NCCc3ccc(C#N)cc3)nc(C(F)(F)F)n2)CC1 [Compound 267, (S)-ethyl 3-(3-(2-(1-(6-(2-((4-cyanophenethyl)carbamoyl)azetidin-1-yl)-2-(trifluoromethyl)pyrimidin-4-yl)piperidin-4-yl)ethyl)ureido)propanoate]
23 | < 100 | 100 to 999 | N#Cc1ccc(CCNC(=O)[C@@H]2CCCN2c2cc(-c3ccc(CNC(=O)NCS(=O)(=O)O)cc3)nc(C(F)(F)F)n2)cc1 [Compound 192, (S)-(3-(4-(6-(2-((4-cyanophenethyl)carbamoyl)pyrrolidin-1-yl)-2-(trifluoromethyl)pyrimidin-4-yl)benzyl)ureido)methanesulfonic acid]
